Results on 20 molecules are retold here after PubChem BioAssay AID493117 (Broad Institute, 2011).

SMILES strings stand for the structures. Results filed as inconclusive are left out. Calls of active or inactive are those of the source.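 The calls were made as follows: active = every test run gives a fitted half-maximal dose no higher than ten times the top tested dose, with signal falling; inconclusive = runs disagree, or a flat mid-level drop or poor fit; inactive = every test run inactive.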

Sequence of Autoinducer 2-binding periplasmic protein LuxP (Vibrio harveyi) + Autoinducer 2 sensor kinase/phosphatase LuxQ (Vibrio harveyi) (P54300 whole entry, looked up): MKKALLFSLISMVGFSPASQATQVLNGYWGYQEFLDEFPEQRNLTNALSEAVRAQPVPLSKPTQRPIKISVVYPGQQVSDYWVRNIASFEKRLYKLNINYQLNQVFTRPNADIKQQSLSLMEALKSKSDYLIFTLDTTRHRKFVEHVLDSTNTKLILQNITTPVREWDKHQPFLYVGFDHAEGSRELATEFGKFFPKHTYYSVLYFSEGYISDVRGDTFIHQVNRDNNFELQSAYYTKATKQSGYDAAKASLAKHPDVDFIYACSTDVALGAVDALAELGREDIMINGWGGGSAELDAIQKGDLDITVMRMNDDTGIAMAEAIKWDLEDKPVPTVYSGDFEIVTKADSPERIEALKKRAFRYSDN
Sequence of Autoinducer 2-binding periplasmic protein LuxP (Vibrio harveyi) + Autoinducer 2 sensor kinase/phosphatase LuxQ (Vibrio harveyi) (P54302 whole entry, looked up): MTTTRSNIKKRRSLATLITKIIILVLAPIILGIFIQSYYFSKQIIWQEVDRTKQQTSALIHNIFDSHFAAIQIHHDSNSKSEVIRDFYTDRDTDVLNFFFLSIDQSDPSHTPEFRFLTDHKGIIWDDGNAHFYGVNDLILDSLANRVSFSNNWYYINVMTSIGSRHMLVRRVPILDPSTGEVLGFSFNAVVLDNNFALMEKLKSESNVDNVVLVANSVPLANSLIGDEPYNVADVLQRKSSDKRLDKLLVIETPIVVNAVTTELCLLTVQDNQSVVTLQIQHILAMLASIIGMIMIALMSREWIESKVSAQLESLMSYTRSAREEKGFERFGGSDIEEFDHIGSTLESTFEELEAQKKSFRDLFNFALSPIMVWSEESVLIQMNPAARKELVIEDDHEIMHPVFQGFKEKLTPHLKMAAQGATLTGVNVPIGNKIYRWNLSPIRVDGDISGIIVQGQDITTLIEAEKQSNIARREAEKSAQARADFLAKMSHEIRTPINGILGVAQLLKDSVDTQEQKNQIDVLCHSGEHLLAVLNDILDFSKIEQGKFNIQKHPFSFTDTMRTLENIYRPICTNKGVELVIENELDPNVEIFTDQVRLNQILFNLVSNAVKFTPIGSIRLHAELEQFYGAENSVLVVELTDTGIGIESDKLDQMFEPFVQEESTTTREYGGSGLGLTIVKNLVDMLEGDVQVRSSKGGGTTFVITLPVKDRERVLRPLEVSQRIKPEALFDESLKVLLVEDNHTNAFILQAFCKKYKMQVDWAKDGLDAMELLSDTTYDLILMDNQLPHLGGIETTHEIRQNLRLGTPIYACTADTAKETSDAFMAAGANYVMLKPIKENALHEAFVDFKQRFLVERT

One assay has as its target Autoinducer 2-binding periplasmic protein LuxP (Vibrio harveyi) + Autoinducer 2 sensor kinase/phosphatase LuxQ (Vibrio harveyi) (UniProt P54300+P54302). The assay is described as follows: AI-2 driven bioluminescence decrease, LuxPQ pathway – strain MM32 LuxS-null, luminescence, dry powder, set 3, mechanism study for V. harveyi quorum sensing inhibitors, dose response (AID 493117). Particulars: AI-2 luminescence, 5 h.
The term AC50 denotes the midpoint of the concentration-response curve, whichever way the signal moves. For the molecule `CCc1ccc(-c2ccc(C(=O)O)n2C)cc1`, the half-maximal activity concentration (AC50) was 3.61 µM.

On to `C=Cn1c(C(=O)O)ccc1-c1ccc(OC)cc1`, for which the concentration at half-maximal activity (AC50) is 7.08 µM.

On to `C[C@@H]1CN([C@H](C)CO)C(=O)c2ccccc2-c2ccccc2CO[C@@H]1CN(C)Cc1ccc(Oc2ccccc2)cc1`, for which the half-maximal activity concentration (AC50) is 11.3 µM.

On to `Cc1noc(C)c1S(=O)(=O)Nc1ccc2c(c1)C(=O)N([C@@H](C)CO)C[C@@H](C)[C@@H](CN(C)Cc1ccc(Oc3ccccc3)cc1)O2`, for which the AC50 is 18.4 µM.

Regarding `Cn1cnc(S(=O)(=O)Nc2ccc(OC(F)(F)F)cc2)c1`, the half-maximal activity concentration (AC50) was 2.42 µM.

Consider `C=Cn1c(C(=O)O)ccc1-c1ccc(CC)cc1`, for which the AC50 is 2.32 µM.

With `O=S(=O)(Nc1cccnc1)c1ccc(Oc2ccccc2)cc1`, the AC50 was 0.591 µM.

For the molecule `C=Cn1c(C(=O)O)ccc1-c1ccc(Cl)cc1`, the concentration at half-maximal activity (AC50) was 4.46 µM.

Consider `O=S(=O)(Nc1ccccn1)c1ccc(Oc2ccccc2)cc1`, for which the half-maximal activity concentration (AC50) is 1.35 µM.

In the case of `O=C1C=C/C(=C/Br)O1`, the concentration at half-maximal activity (AC50) was 3.45 µM.

The assay is the same for the next values; noted with them: AI-2 luminescence, 5 h, at 16 µM (top of the series).
Take `CC(=O)Nc1ccccc1NS(=O)(=O)c1cn(C)cn1`: the “activity change, negative = inhibition” value was “inactive”.

Turning to `Cn1cnc(S(=O)(=O)Nc2ccccc2F)c1`, the “activity change, negative = inhibition” value is “inactive”.

As to `C[C@H](CO)N1C[C@H](C)[C@H](CN(C)Cc2ccc(C(=O)O)cc2)Oc2ncc(-c3ccc(C(=O)N(C)C)cc3)cc2C1=O`, the “activity change, negative = inhibition” value was “inactive”.

`CCc1ccc(-c2ccc(C(=O)O)n2CC)cc1`: the “activity change, negative = inhibition” value is “inactive”.

Turning to `C=Cn1c(C(=O)O)ccc1-c1cccs1`, the “activity change, negative = inhibition” value is “inactive”.

Regarding `CN(C)C(=O)c1ccccc1NS(=O)(=O)c1cn(C)cn1`, the “activity change, negative = inhibition” value was “inactive”.

On to `COc1ccccc1NS(=O)(=O)c1cn(C)cn1`, for which the “activity change, negative = inhibition” value is “inactive”.

As to `Cn1cnc(S(=O)(=O)Nc2ccccc2Cl)c1`, the “activity change, negative = inhibition” value was “inactive”.

For the molecule `O=S(=O)(Nc1ccccn1)c1ccccc1`, the “activity change, negative = inhibition” value was “inactive”.

As for `Cc1ccccc1NS(=O)(=O)c1cn(C)cn1`, the “activity change, negative = inhibition” value is “inactive”.
